Source: ChEMBL document CHEMBL4130409, “Gordonic Acid, a Polyketide Glycoside Derived from Bacterial Coculture of Streptomyces and Gordonia Species” (J Nat Prod, 2017)

Columns and labels:
Gordonia sp. = experiment: Growth inhibition of Gordonia sp. KMC005 after 18 to 36 hrs by agar diffusion method
Streptomyces tendae = experiment: Growth inhibition of Streptomyces tendae KMC006 after 18 to 36 hrs by agar diffusion method; type: organism-based; settings: in vivo
Micrococcus luteus = experiment: Antibacterial activity against Micrococcus luteus KCCM 11548 assessed as zone of inhibition at 10 microg/disk after 18 to 36 hrs by agar diffusion method; type: functional; settings: read-out: DIZ
Enterococcus hirae = experiment: Antibacterial activity against Enterococcus hirae KCCM 11768 assessed as zone of inhibition at 10 microg/disk after 18 to 36 hrs by agar diffusion method; type: functional; settings: read-out: DIZ

Compound | Activity (Gordonia sp.) | Activity (Streptomyces tendae) | zone of inhibition at 10 µg/disc (Micrococcus luteus) | zone of inhibition at 10 µg/disc (Enterococcus hirae)
CC(/C=C/C=C/C=C/C=C/C(O)=C1\C(=O)[C@H](CCC(=O)O)N(C)C1=O)=C\[C@@H](C)[C@@H](O[C@H]1C[C@H](O)[C@H](O)[C@@H](C)O1)C(C)C | Non-Toxic | Non-Toxic |  | 
CC(/C=C/C=C/C=C/C=C/C(=O)O)=C\[C@@H](C)[C@@H](O[C@H]1C[C@H](O)[C@H](O)[C@@H](C)O1)C(C)C | Non-Toxic | Non-Toxic | 2.5 mm | 1.5 mm
CC1(C)S[C@@H]2[C@H](NC(=O)[C@H](N)c3ccccc3)C(=O)N2[C@H]1C(=O)O [AMPICILLIN] |  |  | 10 mm | 8 mm
